Data: ChEMBL document CHEMBL4483862, “Open-source discovery of chemical leads for next-generation chemoprotective antimalarials” (2018)

Test system: Plasmodium berghei
Assay: Luciferase/luciferin-expressing antifolate-resistant parasites were used to infect a culture of HepG2 cells that were pre-incubated with compounds. Infected hepatocytes emit light due to the luciferase reaction. Assay results are presented as the percent inhibition of light emission compared to control. […]
Type: functional
Details: sporozoite; for IC90: read-out: LUCIFERASE INFECTION ASSAY - IC90
[1] = read-out: LUCIFERASE INFECTION ASSAY - IC50

## CN(C)c1nc(N)nc(CSc2nc(N)c3c4c(sc3n2)CCCC4)n1
HEPG2TOX_HILL_SLOPE 2.63, HEPG2TOX_R_SQUARED 0.627, PBLUC_HILL_SLOPE 2.91, PBLUC_R_SQUARED 0.214, read-out: LUCIFERASE INFECTION ASSAY - IC50
  IC50: 9.21 µM
  IC90: > 10 µM

## CCc1c(C(=O)/C=C/c2cc(OC)c(O)c(OC)c2)oc2ccc(C)cc12
PBLUC_HILL_SLOPE 25.7, 54.1, PBLUC_R_SQUARED 0.301, 0.609, read-out: LUCIFERASE INFECTION ASSAY - IC50
  IC50: 7.44 µM
  IC90: 7.96 µM

## CCc1ccc(Cl)c(CC)c1NC(=O)Cc1c(C)nn(CC(C)C)c1C
PBLUC_HILL_SLOPE 11.4, PBLUC_R_SQUARED 0.518, read-out: LUCIFERASE INFECTION ASSAY - IC50
  IC50: 3.35 µM
  IC90: 4.06 µM

## c1ccn(C2CCNCC2)c1
[1]
  IC50: > 22 µM
  IC90: > 22 µM

## Clc1ccccc1OCc1nnc(SCc2csc(-c3ccccc3)n2)o1
[1]
  IC50: > 10 µM
  IC90: > 10 µM

## O/N=C1/c2ccccc2-c2nnc(-c3cccc(OC(F)(F)F)c3)cc21
PBLUC_HILL_SLOPE 1.48, PBLUC_R_SQUARED 0.765, read-out: LUCIFERASE INFECTION ASSAY - IC50
  IC50: 0.337 µM
  IC90: 1.49 µM

## N#C/C(=C\c1ccc(C(F)(F)F)cc1)c1c[nH]c2ccccc12
FFLUC_HILL_SLOPE 17.8, FFLUC_R_SQUARED 0.181, PBLUC_HILL_SLOPE 2.5, PBLUC_R_SQUARED 0.114, read-out: LUCIFERASE INFECTION ASSAY - IC50
  IC50: > 10.6 µM
  IC90: > 10.6 µM

## Cc1ccc(NC(=O)c2snnc2C)cc1Cl
HEPG2TOX_HILL_SLOPE 16.5, HEPG2TOX_R_SQUARED 0.725, read-out: LUCIFERASE INFECTION ASSAY - IC50
  IC50: > 12.3 µM
  IC90: > 12.3 µM

## COc1cc2ccccc2cc1C(=O)OC(C(=O)Nc1ccc(C)c(Cl)c1)c1ccccc1 (stereo not drawn)
FFLUC_HILL_SLOPE 12, FFLUC_R_SQUARED 0.255, PBLUC_HILL_SLOPE 12.6, PBLUC_R_SQUARED 0.137, read-out: LUCIFERASE INFECTION ASSAY - IC50
  IC50: > 10 µM
  IC90: > 10 µM

## CON(C)S(=O)(=O)c1ccc(NC(=O)COc2cccc(C(C)(C)C)c2)cc1
[1]
  IC50: > 10 µM
  IC90: > 10 µM

## Cc1ccc(Oc2ccc(OCC(=O)NC3CCN(C(C)C)CC3)cc2)cc1
[1]
  IC50: > 10 µM
  IC90: > 10 µM

## O=C(Cn1cnc2c(cnn2-c2ccccc2)c1=O)c1c[nH]c2ccccc12
HEPG2TOX_HILL_SLOPE 3.41, HEPG2TOX_R_SQUARED 0.825, PBLUC_HILL_SLOPE 1.56, PBLUC_R_SQUARED 0.738, read-out: LUCIFERASE INFECTION ASSAY - IC50
  IC50: 2.81 µM
  IC90: > 10 µM

## O=C(OCN1C(=O)c2ccccc2C1=O)c1ccc(OCC2CCCO2)cc1 (stereo not drawn)
[1]
  IC50: > 10 µM
  IC90: > 10 µM

## Cc1ccc(-c2csc(Nc3ccccn3)n2)c(C)c1
HEPG2TOX_HILL_SLOPE 8.07, HEPG2TOX_R_SQUARED 0.196, PBLUC_HILL_SLOPE 0.693, PBLUC_R_SQUARED 0.516, read-out: LUCIFERASE INFECTION ASSAY - IC50
  IC50: 0.441 µM
  IC90: > 10 µM

## CC(C)c1ccc(C(=O)CSc2nc(N)cc(N)n2)c(C(C)C)c1
PBLUC_HILL_SLOPE 15.6, PBLUC_R_SQUARED 0.415, read-out: LUCIFERASE INFECTION ASSAY - IC50
  IC50: 9.92 µM
  IC90: > 10 µM

## CC(C)(C)c1cc(NC(=O)COc2ccc3[nH]c4ccccc4c(=O)c3c2)n(-c2ccccc2)n1
FFLUC_HILL_SLOPE 14.6, FFLUC_R_SQUARED 0.0178, PBLUC_HILL_SLOPE 1.61, PBLUC_R_SQUARED 0.936, read-out: LUCIFERASE INFECTION ASSAY - IC50
  IC50: 0.192 µM
  IC90: 0.752 µM

## CN(C1CCCCC1)S(=O)(=O)c1ccc(NC(=S)NC(=O)c2ccco2)cc1
FFLUC_HILL_SLOPE 2.51, FFLUC_R_SQUARED 0.131, read-out: LUCIFERASE INFECTION ASSAY - IC50
  IC50: > 10 µM
  IC90: > 10 µM

## Clc1ccc(-c2csc3ncnc(Sc4nnc(N5CCOCC5)n4C4CC4)c23)cc1
PBLUC_HILL_SLOPE 1.69, PBLUC_R_SQUARED 0.173, read-out: LUCIFERASE INFECTION ASSAY - IC50
  IC50: 7.1 µM
  IC90: > 10 µM

## COc1ccc(O)c(/C=N/NC(=O)c2ccc(CSc3nc(C)cc(C)n3)cc2)c1
FFLUC_HILL_SLOPE 9.54, FFLUC_R_SQUARED 0.0205, HEPG2TOX_HILL_SLOPE 2.18, HEPG2TOX_R_SQUARED 0.934, PBLUC_HILL_SLOPE 9.18, PBLUC_R_SQUARED 0.547, read-out: LUCIFERASE INFECTION ASSAY - IC50
  IC50: 3.84 µM
  IC90: 4.88 µM

## CCN1/C(=C\C(=O)c2ccccc2Oc2ccccc2)C(C)(C)c2c1ccc1ccccc21
HEPG2TOX_HILL_SLOPE 8.78, HEPG2TOX_R_SQUARED 0.227, PBLUC_HILL_SLOPE 3.21, PBLUC_R_SQUARED 0.612, read-out: LUCIFERASE INFECTION ASSAY - IC50
  IC50: 4.25 µM
  IC90: 8.43 µM

## FC(F)(F)c1nc2ccccc2n2c(-c3ccc(Cl)cc3)nnc12
HEPG2TOX_HILL_SLOPE 11.7, HEPG2TOX_R_SQUARED 0.937, PBLUC_HILL_SLOPE 49.4, PBLUC_R_SQUARED 0.195, read-out: LUCIFERASE INFECTION ASSAY - IC50
  IC50: 3.13 µM
  IC90: 3.27 µM

## Cn1c(CC(=O)NNC(=O)/C=C/c2cccc(C(F)(F)F)c2)nc2ccccc21
[1]
  IC50: 3.4 µM
  IC90: 3.99 µM

## CC(=O)c1ccc(C#CCOC(=O)c2cccs2)s1
PBLUC_HILL_SLOPE 2.26, PBLUC_R_SQUARED 0.405, read-out: LUCIFERASE INFECTION ASSAY - IC50
  IC50: 5.72 µM
  IC90: > 11.4 µM

## CCN(CC(=O)Nc1ccccc1C(F)(F)F)C(=O)Cn1c(=O)cnc2ccccc21
[1]
  IC50: > 10 µM
  IC90: > 10 µM

## CCn1c2ccccc2c2nnc(SCC(=O)c3cc(C)n(C)c3C)nc21
HEPG2TOX_HILL_SLOPE 1.47, HEPG2TOX_R_SQUARED 0.958, read-out: LUCIFERASE INFECTION ASSAY - IC50
  IC50: > 10 µM
  IC90: > 10 µM

## O=C1C=C(NCCSCc2ccccc2Cl)CC(c2ccc3c(c2)OCO3)C1 (stereo not drawn)
HEPG2TOX_HILL_SLOPE 7.83, HEPG2TOX_R_SQUARED 0.476, PBLUC_HILL_SLOPE 2.36, PBLUC_R_SQUARED 0.149, read-out: LUCIFERASE INFECTION ASSAY - IC50
  IC50: 6.56 µM
  IC90: > 7.93 µM

## CCc1cccc(CC)c1N1C(=O)C=CC1=O
FFLUC_HILL_SLOPE 12.6, FFLUC_R_SQUARED 0.68, HEPG2TOX_HILL_SLOPE 16.7, HEPG2TOX_R_SQUARED 0.936, PBLUC_HILL_SLOPE 11.7, PBLUC_R_SQUARED 0.538, read-out: LUCIFERASE INFECTION ASSAY - IC50
  IC50: 4.85 µM
  IC90: 5.85 µM

## CCOc1cccc(/C=C/c2ccc3cccc(O)c3n2)c1O
PBLUC_HILL_SLOPE 16.2, PBLUC_R_SQUARED 0.451, read-out: LUCIFERASE INFECTION ASSAY - IC50
  IC50: 9.23 µM
  IC90: 10.6 µM

## CCCN(CCC)S(=O)(=O)c1ccc(-n2ncc(Cl)c(Cl)c2=O)cc1
FFLUC_HILL_SLOPE 2.22, FFLUC_R_SQUARED 0.495, HEPG2TOX_HILL_SLOPE 4.03, HEPG2TOX_R_SQUARED 0.969, PBLUC_HILL_SLOPE 5.8, PBLUC_R_SQUARED 0.662, read-out: LUCIFERASE INFECTION ASSAY - IC50
  IC50: 1.83 µM
  IC90: 2.67 µM

## CCOC(=O)C1=C(c2ccccc2)N=C(N)NC1c1ccc(OCc2ccc(Cl)cc2)c(OC)c1 (stereo not drawn)
PBLUC_HILL_SLOPE 5.7, PBLUC_R_SQUARED 0.538, read-out: LUCIFERASE INFECTION ASSAY - IC50
  IC50: 7.1 µM
  IC90: > 10 µM

## COc1ccccc1-c1cnc2c(Nc3ccc(NS(=O)(=O)c4ccc(C)cc4)cc3)nccn12
[1]
  IC50: 1.57 µM
  IC90: > 6.8 µM

## CN1CCN(c2ccc(-c3cn4c(-c5cccc(Cl)c5)cnc4cn3)cn2)CC1
PBLUC_HILL_SLOPE 1.98, PBLUC_R_SQUARED 0.725, read-out: LUCIFERASE INFECTION ASSAY - IC50
  IC50: 5.39 µM
  IC90: > 8.15 µM

## COc1ccc(/C(C)=N/NC(=O)c2sc3ccccc3c2Cl)c(O)c1
HEPG2TOX_HILL_SLOPE 4.02, HEPG2TOX_R_SQUARED 0.607, PBLUC_HILL_SLOPE 31, PBLUC_R_SQUARED 0.396, read-out: LUCIFERASE INFECTION ASSAY - IC50
  IC50: 3.06 µM
  IC90: 3.29 µM

## O=C(Nc1ncc(Cc2ccccc2)s1)c1ccc2nc[nH]c2c1
HEPG2TOX_HILL_SLOPE 3.11, HEPG2TOX_R_SQUARED 0.961, PBLUC_HILL_SLOPE 3.02, PBLUC_R_SQUARED 0.464, read-out: LUCIFERASE INFECTION ASSAY - IC50
  IC50: 5.71 µM
  IC90: > 10 µM

## Cc1nnc(-c2cccc(NC(=O)c3ccc4c(c3)CCO4)c2)[nH]1
[1]
  IC50: > 10 µM
  IC90: > 10 µM

## COc1cccc(C(=O)Nc2cccc(Nc3ccc(-c4cc(OC)c(OC)c(OC)c4)cn3)c2)c1
[1]
  IC50: > 6.8 µM
  IC90: > 6.8 µM

## CCCOc1ccc(/C=N/NC(=S)Nc2ccccc2[N+](=O)[O-])c(O)c1
HEPG2TOX_HILL_SLOPE 3.34, HEPG2TOX_R_SQUARED 0.913, PBLUC_HILL_SLOPE 0.962, PBLUC_R_SQUARED 0.919, read-out: LUCIFERASE INFECTION ASSAY - IC50
  IC50: 0.102 µM
  IC90: 1 µM

## Fc1ccc(CSc2nnnn2-c2ccc3c(c2)OCO3)c(Cl)c1
HEPG2TOX_HILL_SLOPE 1.94, HEPG2TOX_R_SQUARED 0.929, PBLUC_HILL_SLOPE 1.23, PBLUC_R_SQUARED 0.52, read-out: LUCIFERASE INFECTION ASSAY - IC50
  IC50: 1.37 µM
  IC90: 8.12 µM

## COc1cc(/C=c2\s/c(=C(/C#N)C(=O)Nc3cccc(S(=O)(=O)N4CCCCC4)c3)n(CCc3ccccc3)c2=O)ccc1OC(F)F
[1]
  IC50: > 10 µM
  IC90: > 10 µM
